The source made the active and inactive calls. How the calls were made is not given here.

Some test systems named below: LYPLA2; ABHD11; APEH; LYPLA1; ESD.
Holding throughout (assay): LYPLA1/LYPLA2 inhibition and hydrolase selectivity, late-stage follow-up, selectivity assay for LYPLA1/LYPLA2 dual inhibitor project, biochemical, gel-based ABPP, fluorescence, proteome (AID 493111)
Details in all cases: fluorophosphonate-rhodamine competition, at 1.5 µM (top of the series)

In the case of `O=C(N1CCCCC1)n1ccnn1`, the inhibition (as a rule, the percentage by which the read-out fell short of the control) with LYPLA2 was 0% (inactive); in the test on ABHD11, 100%; in the test on APEH, 0% (inactive); in the test with LYPLA1 it was 75% (inactive); with ESD, 0% (inactive).
Take `O=C(N1CCOCC1)n1ncc(-c2cc(F)cc(F)c2)n1`: the inhibition in the test with LYPLA2 was 0% (inactive); in the test with ABHD11 it was 100%; in the test on APEH, 100%; with LYPLA1, 50% (inactive); in the test with ESD it was 75%.
In the case of `CC1CCN(C(=O)n2ncc(C(O)(c3ccccc3)c3ccccc3)n2)CC1`, the inhibition is 100% in the test with LYPLA2; 100% in the test on ABHD11; 100% in the test with APEH; 100% in the test with LYPLA1; 75% (inactive) in the test with ESD.
With `O=C(N1CCOCC1)n1ncc(-c2ccc(OC(F)(F)F)cc2)n1`, the inhibition is 0% (inactive) in the test on LYPLA2; 100% in the test on ABHD11; 50% (inactive) in the test with APEH; 0% (inactive) in the test on LYPLA1; 75% (inactive) in the test with ESD.
Consider `O=C(N1CCC(Cc2ccccc2)CC1)n1ncc(C(O)(c2ccccc2)c2ccccc2)n1`, for which the inhibition in the test on LYPLA2 was 100%; with ABHD11, 100%; with APEH, 0% (inactive); in the test on LYPLA1, 100%; in the test with ESD, 50% (inactive).
On to `O=C(N1CCOCC1)n1nnc2ccccc21`, for which the inhibition is 0% (inactive) in the test on LYPLA2; 100% with ABHD11; 100% (inactive) with APEH; 50% (inactive) in the test on LYPLA1; 50% (inactive) in the test with ESD.
Take `O=C(N1CCCC(Cc2ccccc2)C1)n1cc(C(O)(c2ccccc2)c2ccccc2)nn1` (stereo not given): the inhibition in the test with LYPLA2 was 100%; with ABHD11, 100%; with APEH it was 0% (inactive); in the test with LYPLA1, 100%; in the test on ESD it was 50% (inactive).
Regarding `O=C(N1CCCCC1)n1ncc(C(O)c2ccccc2)n1` (stereo not given), the inhibition in the test on LYPLA2 was 75%; in the test with ABHD11, 100%; with APEH, 0% (inactive); in the test with LYPLA1, 100%; with ESD it was 75%.
Regarding `O=C(N1CCCCC1)n1ncc(C(O)(c2ccccc2)c2ccccc2)n1`, the inhibition was 100% in the test with LYPLA2; 100% in the test on ABHD11; 50% (inactive) with APEH; 100% in the test on LYPLA1; 100% in the test with ESD.
With `CC(C)(C)C1CCN(C(=O)n2ncc(C3(O)CCCCC3)n2)CC1`, the inhibition in the test on LYPLA2 is 100%; in the test on ABHD11, 100%; in the test on APEH, 0% (inactive); with LYPLA1 it was 100%; with ESD it was 50% (inactive).
`O=C(N1CCC(C(O)(c2ccccc2)c2ccccc2)CC1)n1ncc(C(O)(c2ccccc2)c2ccccc2)n1`: the inhibition was 100% in the test with LYPLA2; 100% in the test on ABHD11; 0% (inactive) in the test with APEH; 100% with LYPLA1; 0% (inactive) in the test on ESD.
For the compound `COc1ccc2cc(-c3cnn(C(=O)N4CCCCC4)n3)ccc2c1`, the inhibition is 50% (inactive) in the test on LYPLA2; 100% in the test on ABHD11; 75% (inactive) in the test with APEH; 100% (inactive) in the test with LYPLA1; 100% in the test on ESD.
Consider `O=C(N1CCOCC1)n1ncc(C(O)(c2ccccc2)c2ccccc2)n1`, for which the inhibition is 50% (inactive) in the test with LYPLA2; 100% in the test on ABHD11; 50% (inactive) in the test on APEH; 100% in the test on LYPLA1; 50% (inactive) in the test with ESD.
Regarding `CCC1CCCCN1C(=O)n1ncc(C(O)(c2ccccc2)c2ccccc2)n1` (stereo not given), the inhibition was 0% (inactive) in the test with LYPLA2; 100% in the test on ABHD11; 50% (inactive) in the test with APEH; 0% (inactive) in the test on LYPLA1; 0% (inactive) in the test on ESD.
For the compound `CC(C)(O)c1cnn(C(=O)N2CCC(C(C)(C)C)CC2)n1`, the inhibition in the test with LYPLA2 was 100%; with ABHD11, 100% (inactive); in the test with APEH, 0% (inactive); in the test with LYPLA1, 100%; in the test on ESD, 0% (inactive).
Regarding `O=C(N1CCCCC1)n1ncc(-c2ccc(Oc3ccccc3)cc2)n1`, the inhibition is 0% (inactive) in the test on LYPLA2; 100% with ABHD11; 0% (inactive) in the test on APEH; 100% in the test on LYPLA1; 100% in the test on ESD.
Regarding `COC1CCN(C(=O)n2ncc(C(O)(c3ccccc3)c3ccccc3)n2)CC1`, the inhibition with LYPLA2 is 100%; in the test with ABHD11, 100%; in the test on APEH it was 0% (inactive); with LYPLA1, 100%; in the test with ESD, 100% (inactive).
As to `O=C(N1CCOCC1)n1ncc(-c2ccccc2)n1`, the inhibition in the test on LYPLA2 was 0% (inactive); with ABHD11, 100%; in the test on APEH it was 100%; with LYPLA1, 0% (inactive); in the test on ESD, 75%.
Regarding `O=C(N1CCOCC1)n1ccnn1`, the inhibition with LYPLA2 was 0% (inactive); in the test on ABHD11, 100%; in the test on APEH, 0% (inactive); in the test on LYPLA1, 0% (inactive); in the test with ESD, 0% (inactive).
Take `CC(C)(C)C1CCN(C(=O)n2ncc(C(O)(c3ccccc3)c3ccccc3)n2)CC1`: the inhibition in the test with LYPLA2 was 100%; in the test with ABHD11, 100%; in the test on APEH it was 0% (inactive); in the test with LYPLA1, 100%; in the test with ESD, 50% (inactive).
